In paper PMC9378659, “Design and synthesis of new N-thioacylated ciprofloxacin derivatives as urease inhibitors with potential antibacterial activity” (Scientific Reports, 2022):
Values after ≈ are worked out from the molar mass of the structure shown. Like-named read-outs stand apart in the source and are kept apart here.

Legend:
[1] = tested on: Pseudomonas aeruginosa ATCC 9027; experiment: Antibacterial activity, agar dilution MIC; format: cell-based; details: ATCC9027, read-out: MIC P. aeruginosa
Description: (§1) Antibacterial activity of the synthesized compounds 3a–n were determined according to the agar dilution methods for Gram-positive bacteria strains (Staphylococcus aureus ATCC 6538 and Staphylococcus epidermidis ATCC 12228) and Gram-negative bacteria strains (Escherichia coli ATCC 8739 and Pseudomonas aeruginosa ATCC 9027).
(§2) Two Gram-positive bacteria strains (Staphylococcus aureus ATCC 6538 and Staphylococcus epidermidis ATCC 12228) and two Gram-negative bacteria strains (Escherichia coli ATCC 8739 and Pseudomonas aeruginosa ATCC 9027) were used for evaluation of the synthesized N-thioacylated ciprofloxacin derivatives 3a–n. All the strains were obtained from Iranian Microbial Collection (Pasteur Institute of Iran, Tehran, Iran). The antibacterial activity of the synthesized compounds was determined according to the agar dilution methods of the National Committee for Clinical Laboratory Standards[43].
(§3) Briefly, a series of twofold dilutions of test compounds 3a–n and ciprofloxacin, the standard antibiotic, were dissolved in 1 ml of DMSO. Each concentration was added to molten test agars that have been allowed to equilibrate in a water bath to 55 °C, to attain the concentrations ranging from 100 to 0.003 µg/ml. To compare the MIC values; the standard antibiotic, ciprofloxacin was also diluted in the same manner.
(§4) To prepare the inoculums suspensions, the bacteria were cultured on Muller-Hinton agar 12–16 h before the test. On the day of the experiment, a single colony of each bacteria was suspended Muller–Hinton broth to reach the turbidity of 0.5 McFarland standard (0.08–0.1 absorbance at 600 nm), which is approximately equivalent to 1.5 × 10^8 CFU/ml. The suspensions were then diluted at 1:10 in sterile saline to obtain a concentration of 1.5 × 10^7 CFU/ml. The plates were dot inoculated with 2 ul of each bacterial suspension and incubated at 37 °C overnight. The MIC was also defined as the lowest concentration of test compounds that completely prevents the growth of bacteria on agar plate following overnight incubation.

[2] = tested on: Staphylococcus epidermidis ATCC 12228; experiment: Antibacterial activity, agar dilution MIC; format: cell-based; details: ATCC12228, read-out: MIC S. epidermidis
Description: as §1, §2, §3, §4

[3] = tested on: Escherichia coli ATCC 8739; experiment: Antibacterial activity, agar dilution MIC; format: cell-based; details: ATCC8739
Description: as §1, §2, §3, §4

[4] = tested on: Staphylococcus aureus ATCC 6538; experiment: Antibacterial activity, agar dilution MIC; format: cell-based; details: ATCC6538, read-out: MIC S. aureus
Description: as §1, §2, §3, §4

[5] = target: T1, jack bean urease (JBU; EC 3.5.1.5) (Canavalia ensiformis, UniProt P07374); experiment: biochemical; details: JB urease, mean ± SEM, at least three experiments
T1 construct: purchased Sigma-Aldrich
T1 sequence (P07374 whole entry, looked up): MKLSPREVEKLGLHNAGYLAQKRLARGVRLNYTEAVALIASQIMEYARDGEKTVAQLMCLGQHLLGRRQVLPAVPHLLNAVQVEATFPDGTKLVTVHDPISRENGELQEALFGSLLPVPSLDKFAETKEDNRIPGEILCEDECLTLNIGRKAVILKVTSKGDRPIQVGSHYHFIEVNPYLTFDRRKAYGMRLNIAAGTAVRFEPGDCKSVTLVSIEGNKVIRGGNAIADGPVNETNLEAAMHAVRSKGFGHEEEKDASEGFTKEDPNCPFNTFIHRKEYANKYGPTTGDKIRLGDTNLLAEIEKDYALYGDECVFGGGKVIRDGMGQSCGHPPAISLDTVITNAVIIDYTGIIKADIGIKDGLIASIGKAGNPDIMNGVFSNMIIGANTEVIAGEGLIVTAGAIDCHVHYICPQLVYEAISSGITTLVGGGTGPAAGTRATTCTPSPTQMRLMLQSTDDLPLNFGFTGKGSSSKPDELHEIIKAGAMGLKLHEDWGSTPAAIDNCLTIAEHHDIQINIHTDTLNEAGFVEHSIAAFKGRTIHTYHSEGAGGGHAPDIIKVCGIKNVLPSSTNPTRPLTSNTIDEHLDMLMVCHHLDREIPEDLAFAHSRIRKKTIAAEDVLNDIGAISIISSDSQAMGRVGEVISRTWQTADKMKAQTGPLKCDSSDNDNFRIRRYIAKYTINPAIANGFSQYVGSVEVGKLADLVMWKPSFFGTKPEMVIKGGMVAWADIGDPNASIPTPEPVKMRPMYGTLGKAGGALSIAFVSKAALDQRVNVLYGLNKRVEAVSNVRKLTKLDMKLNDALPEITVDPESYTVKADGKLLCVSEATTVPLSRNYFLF
Description: All chemicals and jack bean urease (JBU; EC 3.5.1.5) were purchased from Sigma-Aldrich. The urease inhibitory activity of N-thioacylated ciprofloxacin derivatives 3a–n was determined by Berthelot colorimetric method. The ammonia (NH3) produced by the urease enzyme along with indicator solutions including hypochlorite (OCl^−) and phenol make a blue-colored indophenol complex and the absorbance was measured at 625 nm by a Synergy H1 Hybrid multimode microplate reader (BioTek, Winooski, VT, USA).
Assay completed in two steps, at the first step the enzyme cocktail for each compound consisted of 50 µl urease enzyme (3 mg/ml in phosphate buffer, pH 7.4), 100 µl of test compound at different concentrations (0–10 mg/ml, in phosphate buffer, pH 7.4) and 850 µl urea solution (30 mM, in phosphate buffer, pH 7.4). This mixture was incubated at 37 °C for 30 min.
For the second step, each 100 µl of the above mixture was added to 500 µl of indicator solutions A (0.5 g phenol and 25 mg sodium nitroprusside in 500 ml distilled water) and 500 µl of B (2.5 g sodium hydroxide and 4.2 ml sodium hypochlorite (5%) in 500 ml distilled water) and further incubated at 37 °C for 30 min. The absorbance of blue-colored indophenol of each cell is related to the percentage of enzyme inhibition using the following equation: I%=1-T/C×100.
In this equation, I (%) is assigned to the percent of enzyme inhibition. (T) is assigned to the absorbance of our test compounds and C is assigned to the negative control absorbance which is the absorbance of our cocktail without any inhibitor compound. Thiourea and hydroxyurea were used as the positive controls. The IC50 values of test compounds were calculated using GraphPad PRISM 8.0 software (GraphPad, San Diego, CA, USA).

[6] = IC50 urease inhibitory activity

Structure (SMILES)	MIC [1] [µg/mL]	MIC [2] [µg/mL]	MIC [3] [µg/mL]	MIC [4] [µg/mL]	melting point [°C]	IC50 [5, 6] [µM]	IC50 ([5]; read-out: IC50 urease inhibitory activity) [µM]
O=C(O)c1cn(C2CC2)c2cc(N3CCN(C(=S)c4cccc(O)c4)CC3)c(F)cc2c1=O [Compound 3j, 1-Cyclopropyl-6-fluoro-7-(4-(3-hydroxyphenylcarbonothioyl)piperazin-1-yl)-4-oxo-1,4-dihydroquinoline-3-carboxylic acid]	0.781 (≈ 1.67 µM)	0.048 (≈ 0.103 µM)	0.024 (≈ 0.0513 µM)	0.097 (≈ 0.207 µM)	> 250	19.6 ± 0.17	
O=C(O)c1cn(C2CC2)c2cc(N3CCN(C(=S)c4ccccc4F)CC3)c(F)cc2c1=O [Compound 3i, 1-Cyclopropyl-6-fluoro-7-(4-(2-fluorophenylcarbonothioyl)piperazin-1-yl)-4-oxo-1,4-dihydroquinoline-3-carboxylic acid]	2.5 (≈ 5.32 µM)	0.024 (≈ 0.0511 µM)	0.0195 (≈ 0.0415 µM)	0.024 (≈ 0.0511 µM)	> 250	15 ± 0.16	
O=C(O)c1cn(C2CC2)c2cc(N3CCN(C(=S)c4ccc(Cl)cc4)CC3)c(F)cc2c1=O [Compound 3e, 7-(4-(4-Chlorophenylcarbonothioyl)piperazin-1-yl)-1-cyclopropyl-6-fluoro-4-oxo-1,4-dihydroquinoline-3-carboxylic acid]	0.781 (≈ 1.61 µM)	0.048 (≈ 0.0988 µM)	0.024 (≈ 0.0494 µM)	0.048 (≈ 0.0988 µM)	> 250	6.55 ± 0.05	
O=C(O)c1cn(C2CC2)c2cc(N3CCN(C(=S)c4ccc(Br)cc4)CC3)c(F)cc2c1=O [Compound 3l, 7-(4-(4-Bromophenylcarbonothioyl)piperazin-1-yl)-1-cyclopropyl-6-fluoro-4-oxo-1,4-dihydroquinoline-3-carboxylic acid]	0.848 (≈ 1.6 µM)	0.048 (≈ 0.0905 µM)	0.028 (≈ 0.0528 µM)	0.048 (≈ 0.0905 µM)	> 250	8.21 ± 0.06	
COc1ccc(C(=S)N2CCN(c3cc4c(cc3F)c(=O)c(C(=O)O)cn4C3CC3)CC2)cc1 [Compound 3f, 1-Cyclopropyl-6-fluoro-7-(4-(4-methoxyphenylcarbonothioyl)piperazin-1-yl)-4-oxo-1,4-dihydroquinoline-3-carboxylic acid]	3.12 (≈ 6.49 µM)	0.024 (≈ 0.0498 µM)	0.097 (≈ 0.201 µM)	0.024 (≈ 0.0498 µM)	> 250	21.36 ± 0.08	
COc1cccc(C(=S)N2CCN(c3cc4c(cc3F)c(=O)c(C(=O)O)cn4C3CC3)CC2)c1 [Compound 3b, 1-Cyclopropyl-6-fluoro-7-(4-(3-methoxyphenylcarbonothioyl)piperazin-1-yl)-4-oxo-1,4-dihydroquinoline-3-carboxylic acid]	3.12 (≈ 6.49 µM)	0.024 (≈ 0.0498 µM)	0.097 (≈ 0.201 µM)	0.048 (≈ 0.0997 µM)	> 250	17.02 ± 0.16	
Cc1ccc(C(=S)N2CCN(c3cc4c(cc3F)c(=O)c(C(=O)O)cn4C3CC3)CC2)cc1 [Compound 3c, 1-Cyclopropyl-6-fluoro-7-(4-(4-methylphenylcarbonothioyl)piperazin-1-yl)-4-oxo-1,4-dihydroquinoline-3-carboxylic acid]	3.12 (≈ 6.71 µM)	0.024 (≈ 0.0516 µM)	0.097 (≈ 0.208 µM)	0.048 (≈ 0.103 µM)	> 250	20.63 ± 0.19	
O=C(O)c1cn(C2CC2)c2cc(N3CCN(C(=S)c4cccc(F)c4)CC3)c(F)cc2c1=O [Compound 3h, 1-Cyclopropyl-6-fluoro-7-(4-(3-fluorophenylcarbonothioyl)piperazin-1-yl)-4-oxo-1,4-dihydroquinoline-3-carboxylic acid]	0.048 (≈ 0.102 µM)	0.097 (≈ 0.207 µM)	< 0.003	0.048 (≈ 0.102 µM)		4.08 ± 0.03	
NC(=O)NO [Hydroxyurea, reference compound]							100 ± 2.5
O=C(O)c1cn(C2CC2)c2cc(N3CCN(C(=S)c4cccc(Cl)c4)CC3)c(F)cc2c1=O [Compound 3m, 7-(4-(3-Chlorophenylcarbonothioyl)piperazin-1-yl)-1-cyclopropyl-6-fluoro-4-oxo-1,4-dihydroquinoline-3-carboxylic acid]	6.25 (≈ 12.9 µM)	0.097 (≈ 0.2 µM)	0.048 (≈ 0.0988 µM)	0.048 (≈ 0.0988 µM)	> 250	12.2 ± 0.24	
O=C(O)c1cn(C2CC2)c2cc(N3CCN(C(=S)c4cccc([N+](=O)[O-])c4)CC3)c(F)cc2c1=O [Compound 3g, 1-Cyclopropyl-6-fluoro-7-(4-(3-nitrophenylcarbonothioyl)piperazin-1-yl)-4-oxo-1,4-dihydroquinoline-3-carboxylic acid]	0.39 (≈ 0.785 µM)	0.024 (≈ 0.0483 µM)	0.012 (≈ 0.0242 µM)	0.024 (≈ 0.0483 µM)		5.87 ± 0.07	
O=C(O)c1cn(C2CC2)c2cc(N3CCN(C(=S)c4cccc(Oc5ccccc5)c4)CC3)c(F)cc2c1=O [Compound 3k, 1-Cyclopropyl-6-fluoro-4-oxo-7-(4-(3-phenoxyphenylcarbonothioyl)piperazin-1-yl)-1,4-dihydroquinoline-3-carboxylic acid]	3.12 (≈ 5.75 µM)	0.39 (≈ 0.717 µM)	0.097 (≈ 0.178 µM)	0.39 (≈ 0.717 µM)	> 250	32.49 ± 0.32	
O=C(O)c1cn(C2CC2)c2cc(N3CCN(C(=S)c4ccccc4)CC3)c(F)cc2c1=O [Compound 3a, 1-Cyclopropyl-6-fluoro-4-oxo-7-(4-(phenylcarbonothioyl)piperazin-1-yl)-1,4 dihydroquinoline-3-carboxylic acid]	6.25 (≈ 13.8 µM)	0.024 (≈ 0.0532 µM)	0.048 (≈ 0.106 µM)	0.048 (≈ 0.106 µM)	> 250	10.61 ± 0.09	
O=C(O)c1cn(C2CC2)c2cc(N3CCNCC3)c(F)cc2c1=O [Ciprofloxacin]	0.048 (≈ 0.145 µM)	0.048 (≈ 0.145 µM)	< 0.003	0.024 (≈ 0.0724 µM)			
O=C(O)c1cn(C2CC2)c2cc(N3CCN(C(=S)c4ccc(F)cc4)CC3)c(F)cc2c1=O [Compound 3d, 1-Cyclopropyl-6-fluoro-7-(4-(4-fluorophenylcarbonothioyl)piperazin-1-yl)-4-oxo-1,4-dihydroquinoline-3-carboxylic acid]	0.781 (≈ 1.66 µM)	0.048 (≈ 0.102 µM)	0.097 (≈ 0.207 µM)	0.097 (≈ 0.207 µM)	> 250	2.94 ± 0.04	
